# Test results: patent US20230191413A1, “METHOD AND APPARATUS FOR MEASURING PHASE TRANSITION CHARACTERISTICS OF MACROMOLECULES” (CAMBRIDGE ENTERPRISE LIMITED, priority 2020, published 2023)
# Target: T1, FUS-GFP (FUS^G156E-EGFP) (Homo sapiens, UniProt P35637, G156E)
# T1 sequence (P35637 1-526 G156E): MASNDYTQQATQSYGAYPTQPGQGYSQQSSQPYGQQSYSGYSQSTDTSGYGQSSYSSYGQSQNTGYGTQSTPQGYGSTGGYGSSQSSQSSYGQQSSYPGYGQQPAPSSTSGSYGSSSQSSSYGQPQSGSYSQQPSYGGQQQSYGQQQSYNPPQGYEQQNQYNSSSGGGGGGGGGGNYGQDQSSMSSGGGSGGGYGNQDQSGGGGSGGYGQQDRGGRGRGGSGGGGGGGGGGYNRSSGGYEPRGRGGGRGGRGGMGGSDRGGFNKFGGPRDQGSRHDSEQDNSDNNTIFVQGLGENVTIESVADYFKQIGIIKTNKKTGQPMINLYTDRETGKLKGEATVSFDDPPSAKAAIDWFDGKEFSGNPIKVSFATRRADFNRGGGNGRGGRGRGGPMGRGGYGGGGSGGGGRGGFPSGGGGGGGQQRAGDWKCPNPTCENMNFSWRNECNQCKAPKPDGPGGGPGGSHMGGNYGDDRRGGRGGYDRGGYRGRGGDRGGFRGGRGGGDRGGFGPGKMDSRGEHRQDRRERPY
# Test: Droplet microfluidics phase diagram of FUS-GFP liquid-liquid phase separation as a function of protein and 1,6-hexanediol concentration
# Assay type: biochemical
# Details: micro-droplets, GFP fluorescence puncta; homogeneous phase at higher diol concentrations (FIG. 6, N=322 droplets)
# Protocol: The method utilises droplet microfluidics to rapidly produce many micro-droplets, each of which can be considered a discrete microenvironment in which to study protein phase separation. By altering the input solution conditions, a broad range of phase-separation environments are produced rapidly in order to map LLPS behaviour over a wide region of chemical space. […] Using the microfluidic platform, the phase boundary between phase-separated and homogeneous FUS solution is determined, as modulated by the small molecule 1,6-hexanediol, which is known to strongly interfere with LLPS behaviour. […]
# Alexa647 dye (10 μM) was mixed with the 1,6-hexanediol solution, to provide a fluorescent marker for the intra-droplet 1,6-hexanediol concentration. […] Samples were collected for three minutes before undergoing fluorescence imaging analysis.
# The concentration of FUS^G156E-EGFP and 1,6-hexanediol present in each droplet was determined by integration of volume-normalised EGFP (green fluorescent protein) and Alexa647 fluorescence, respectively. Phase separation was observed by the presence of discrete puncta in GFP fluorescence, whereas homogeneous droplet fluorescence indicated the absence of phase separation (FIG. 5). […]
compound,measurement,value
"OCCCCCCO [1,6-hexanediol]","concentration of 1,6-hexanediol at which phase separation of FUS-GFP was observable",< 1 % v/v
